Reference: ChEMBL document CHEMBL4138213, “Synthesis and biological characterization of ubenimex-fluorouracil conjugates for anti-cancer therapy” (Eur J Med Chem, 2018)
Each block holds one compound with its values, some of them ahead of it. Calls of active or inactive are those of the source. The calls are words filed in the database; no cut-off is given here.

Legend:
cells = conditions: Homo sapiens, ES-2, 48 h
Description: Antiproliferative activity against human ES2 cells after 48 hrs by MTT assay

PLC-PRF-5 [1] = assay: Antiproliferative activity against human PLC/PRF/5 cells after 48 hrs by MTT assay; conditions: PLC-PRF-5, 48 h
Aminopeptidase N = target: T1, Aminopeptidase N (Sus scrofa, UniProt P15145); assay: Inhibition of porcine kidney CD13 using L-leucine-p-nitroanilide as substrate preincubated for 5 mins followed by substrate addition measured after 30 mins
T1 sequence (P15145 whole entry): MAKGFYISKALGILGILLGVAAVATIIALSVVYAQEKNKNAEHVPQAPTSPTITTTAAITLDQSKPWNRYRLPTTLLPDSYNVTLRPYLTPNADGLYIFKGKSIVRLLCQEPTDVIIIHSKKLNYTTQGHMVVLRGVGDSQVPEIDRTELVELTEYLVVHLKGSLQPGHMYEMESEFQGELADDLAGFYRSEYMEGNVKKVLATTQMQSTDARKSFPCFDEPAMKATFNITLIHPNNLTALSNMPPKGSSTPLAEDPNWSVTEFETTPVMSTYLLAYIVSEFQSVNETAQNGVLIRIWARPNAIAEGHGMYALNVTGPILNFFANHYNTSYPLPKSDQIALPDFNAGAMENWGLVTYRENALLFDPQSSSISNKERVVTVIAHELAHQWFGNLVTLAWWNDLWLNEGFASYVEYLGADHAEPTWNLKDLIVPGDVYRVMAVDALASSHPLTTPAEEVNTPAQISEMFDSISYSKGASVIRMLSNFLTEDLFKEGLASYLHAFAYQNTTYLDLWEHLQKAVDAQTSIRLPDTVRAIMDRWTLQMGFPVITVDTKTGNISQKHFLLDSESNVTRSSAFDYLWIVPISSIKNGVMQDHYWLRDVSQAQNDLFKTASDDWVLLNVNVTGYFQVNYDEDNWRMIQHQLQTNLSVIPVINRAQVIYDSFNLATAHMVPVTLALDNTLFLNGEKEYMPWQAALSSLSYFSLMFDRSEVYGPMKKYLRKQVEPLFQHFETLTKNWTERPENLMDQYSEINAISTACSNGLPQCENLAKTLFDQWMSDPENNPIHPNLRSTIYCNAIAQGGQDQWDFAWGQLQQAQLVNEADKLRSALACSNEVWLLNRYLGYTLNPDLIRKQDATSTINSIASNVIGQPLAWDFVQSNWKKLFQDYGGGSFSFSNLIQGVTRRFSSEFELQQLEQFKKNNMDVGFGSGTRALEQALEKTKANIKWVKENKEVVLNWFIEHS

[2] = Apparent clearance in Wistar rat at 80 mg/kg, iv after 0.05 to 24 hrs by HPLC-MS/MS analysis; assay type: ADME, organism-based; conditions: in vivo, read-out: CL(app) (converted)
[3] = (§1) Terminal Half life in Wistar rat at 80 mg/kg, iv after 0.05 to 24 hrs by HPLC-MS/MS analysis; assay type: ADME, organism-based; conditions: Wistar, in vivo, read-out: beta t1/2 (converted)
[4] = Volume of distribution during elimination phase in Wistar rat at 80 mg/kg, iv after 0.05 to 24 hrs by HPLC-MS/MS analysis; assay type: ADME, organism-based; conditions: in vivo, read-out: Vz
[5] = AUC (0 to infinity) in Wistar rat at 80 mg/kg, iv after 0.05 to 24 hrs by HPLC-MS/MS analysis; assay type: ADME, organism-based; design: dose 80 mg/kg, time infinity, route intravenous; conditions: in vivo
[6] = (§2) MRT (0 to infinity) in Wistar rat at 80 mg/kg, iv after 0.05 to 24 hrs by HPLC-MS/MS analysis; assay type: ADME, organism-based; conditions: Wistar, in vivo
Rattus norvegicus [7] = assay: VRT (0 to infinity) in Wistar rat at 80 mg/kg, iv after 0.05 to 24 hrs by HPLC-MS/MS analysis; assay type: ADME, organism-based; conditions: in vivo
[8] = Cmax in Wistar rat at 80 mg/kg, iv after 0.05 to 24 hrs by HPLC-MS/MS analysis; assay type: ADME, organism-based; design: dose 80 mg/kg, route intravenous; conditions: in vivo
[9] = Drug level in Wistar rat plasma treated with (5-fluoro-2,4-dioxo-3,4-dihydropyrimidin1(2H)-yl)methyl-2-((S)-2-((2S,3R)-3-amino-2-hydroxy-4-phenylbut-anamido)-4-methylpentanamido)acetate hydrochloride assessed as carboxylesterase-mediated compound formation at 80 mg/kg, iv by HPLC-MS/MS analysis; assay type: ADME, organism-based; conditions: in vivo
Thoracic aorta = assay: Antiangiogenic activity in Wistar rat thoracic aorta ring assessed as inhibition of microvessels sprouting at 20 ug/ml treated every other day for 9 days; assay type: functional, tissue-based
HCT-116 = assay: cells; conditions: Homo sapiens, HCT-116, 48 h
H22 [10] = assay: Antitumor activity against […] cells xenografted in iv dosed mouse administered 5 days per week for 2 weeks; assay type: functional, organism-based
Rattus norvegicus [11] = assay: as §1; assay type: ADME, organism-based; conditions: in vivo
PLC-PRF-5 [12] = assay: Induction of apoptosis in human PLC/PRF/5 cells assessed as viable cells at 20 uM after 48 hrs by annexin-V-FITC/propidium iodide staining-based flow cytometric method (reference value: 93.7%); assay type: functional; conditions: PLC-PRF-5, 48 h, read-out: Activity
PLC-PRF-5 [13] = assay: Anticlonogenic activity against human PLC/PRF/5 cells after 2 weeks by Giemsa staining-based inverted microscopic method; assay type: functional, cell-based
Mus musculus [14] = assay: Toxicity in Kunming mouse xenografted with 5-FU-resistant […] H22 cells assessed as body weight loss at 82 mg/kg, iv measured for 14 days during compound dosing; assay type: organism-based; conditions: in vivo, 336 h
[15] = Antiproliferative activity against human H7402 cells after 48 hrs by MTT assay; conditions: H7402, 48 h
U-937 = assay: cells; conditions: Homo sapiens, U-937, 48 h
Description: Antiproliferative activity against human U937 cells after 48 hrs by MTT assay

H22 [16] = assay: Antimetastatic activity in […] cells xenografted in iv dosed mouse assessed as decrease in lung metastasis nodus number administered 5 days followed by 2 days of withdrawal; assay type: functional, organism-based
[17] = Drug metabolism in Wistar rat plasma assessed as peptidase-mediated ubenimex formation at 80 mg/kg, iv by HPLC-MS/MS analysis; assay type: ADME, organism-based; conditions: in vivo
Rattus norvegicus [18] = assay: as §2; assay type: ADME, organism-based; conditions: in vivo
PLC-PRF-5 [19] = assay: Induction of apoptosis in human PLC/PRF/5 cells assessed as necrotic cells at 20 uM after 48 hrs by annexin-V-FITC/propidium iodide staining-based flow cytometric method (reference value: 0.106%); assay type: functional
PLC-PRF-5 [20] = assay: Induction of reactive oxygen species formation in human PLC/PRF/5 cells at 10 uM by DCF-DA staining-based flow cytometric method; assay type: functional, cell-based; conditions: TDE = time-dependent effect
A549 = assay: Antiproliferative activity against human A549 cells after 48 hrs by MTT assay; conditions: A549, 48 h
PLC-PRF-5 [21] = assay: Downregulation of CD13 expression in human PLC/PRF/5 cells at 10 uM after 48 hrs by flow cytometric method; assay type: functional, cell-based
[22] = Drug metabolism in human plasma assessed as 5-FU formation at 4 mg/ml after 8 hrs by HPLC method; assay type: ADME, cell-free
Homo sapiens = organism: Homo sapiens; assay: Antiinvasive activity in human ES2 cells at 5 ug/ml after 24 hrs by transwell assay; assay type: functional, cell-based
HepG2 = assay: cells; conditions: Homo sapiens, HepG2, 48 h
[23] = Drug metabolism in Wistar rat plasma assessed as carboxylesterase-mediated 2-((S)-2-((2S,3R)-3-amino-2-hydroxy-4-phenylbutanamido)-4-methylpentan-amido)-acetic acid formation at 80 mg/kg, iv by HPLC-MS/MS analysis; assay type: ADME, organism-based; conditions: in vivo
U-266 = assay: Antiproliferative activity against human U266 cells after 48 hrs by MTT assay; conditions: U-266, 48 h
PLC-PRF-5 [24] = assay: Induction of apoptosis in human PLC/PRF/5 cells assessed as late apoptotic cells at 20 uM after 48 hrs by annexin-V-FITC/propidium iodide staining-based flow cytometric method (reference value: 0.341%); assay type: functional
[25] = Drug metabolism in Wistar rat plasma assessed as carboxylesterase-mediated 5-FU formation at 80 mg/kg, iv by HPLC-MS/MS analysis; assay type: ADME, organism-based; conditions: in vivo
PLC-PRF-5 [26] = assay: Induction of apoptosis in human PLC/PRF/5 cells assessed as early apoptotic cells at 20 uM after 48 hrs by annexin-V-FITC/propidium iodide staining-based flow cytometric method (reference value: 5.82%); assay type: functional
H22 [27] = assay: Antitumor activity against 5-FU-resistant […] cells xenografted in Kunming mouse at 82 mg/kg, iv after 14 days; assay type: functional, organism-based
Mus musculus [28] = assay: Toxicity in Kunming mouse xenografted with 5-FU-resistant […] H22 cells assessed as mortality at 82 mg/kg, iv after 14 days; assay type: organism-based; conditions: in vivo, 336 h

- IC50 (cells): 131 µM
- IC50 (Aminopeptidase N): 0.68 µM
SMILES: CC(C)C[C@H](NC(=O)[C@@H](O)[C@H](N)Cc1ccccc1)C(=O)NCCC(=O)OCn1cc(F)c(=O)[nH]c1=O
- IC50 (PLC-PRF-5 [1]): 59 µM

- clearance [2]: 36.8 mL/min/kg
- half-life [3]: 1.23 h
- Vd [4]: 3.93 L/kg
- AUC(0-inf) [5]: 36200 ng·h/mL
- MRT inf [6]: 3.22 h
- VRT (Rattus norvegicus [7]): 3.797 hr2
- IC50 (Aminopeptidase N): 0.6 µM
- Cmax [8]: 8570 ng/mL
- Drug metabolism [9]: Metabolite_Detected
SMILES: CC(C)C[C@H](NC(=O)[C@@H](O)[C@H](N)Cc1ccccc1)C(=O)NCC(=O)O.Cl

SMILES: CC(C)C[C@H](NC(=O)[C@@H](O)[C@H](N)Cc1ccccc1)C(=O)NCC(=O)OCn1cc(F)c(=O)[nH]c1=O.Cl
- Activity (Thoracic aorta): Active
- IC50 (HCT-116): 26 µM
- clearance [2]: 90.5 mL/min/kg
- Activity (H22 [10]): Dose-dependent effect
- beta t1/2 (Rattus norvegicus [11]): 0.795 h
- viability at 20 µM (PLC-PRF-5 [12]): 71.1%
- IC50 (cells): 23.5 µM
- IC50 (PLC-PRF-5 [1]): 16.5 µM
- Activity (PLC-PRF-5 [13]): Dose-dependent effect
- Activity (Mus musculus [14]): Non-Toxic
- IC50 [15]: 19.9 µM
- Vd [4]: 6.23 L/kg
- IC50 (U-937): 10.2 µM
- Activity (H22 [16]): Dose-dependent effect
- AUC(0-inf) [5]: 14700 ng·h/mL
- Drug metabolism [17]: Metabolite_Detected
- MRT (Rattus norvegicus [18]): 2.576 h
- Activity (PLC-PRF-5 [19]): 0%
- Activity (PLC-PRF-5 [20]): Tde
- IC50 (A549): 15.3 µM
- Activity (PLC-PRF-5 [21]): Active
- Drug metabolism [22]: Metabolite_Detected
- Activity (Homo sapiens): Active
- IC50 (HepG2): 14.2 µM
- Drug metabolism [23]: Metabolite_Detected
- VRT (Rattus norvegicus [7]): 4.423 hr2
- IC50 (Aminopeptidase N): 0.18 µM
- IC50 (U-266): 31.6 µM
- Activity (PLC-PRF-5 [24]): 4.69%
- Drug metabolism [25]: Metabolite_Detected
- Activity (PLC-PRF-5 [26]): 24.2%
- Activity (H22 [27]): Active
- Cmax [8]: 5870 ng/mL
- Activity (Mus musculus [28]): Non-Toxic

- IC50 (cells): 110 µM
- IC50 (Aminopeptidase N): 0.69 µM
SMILES: CC(C)C[C@H](NC(=O)[C@@H](O)[C@H](N)Cc1ccccc1)C(=O)NCCCC(=O)OCn1cc(F)c(=O)[nH]c1=O
- IC50 (PLC-PRF-5 [1]): 53 µM
